In ChEMBL document CHEMBL1201862, “PubChem BioAssay data set” (2004):
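Dose response: 5 concentrations. Exposure: 48 h. Format: 96-well plates. Endpoint: linear interpolation; highest concentration if not reached. GI50 = concentration required for 50% inhibition of growth.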 Calls of active or inactive are those of the source. Cut-off read from the data, not from the text of the source: active = GI50 up to about 1.1 µM and inactive = higher.

What was measured:
Assay in all cases: NCI tumour cell line growth inhibition, 48 h
UACC-62 = test system: UACC-62
MDA-MB-435 = test system: MDA-MB-435
MDA-MB-231 = test system: MDA-MB-231
KM12 = test system: KM12
HCC 2998 = test system: HCC 2998
SN12C = test system: SN12C
SF-295 = test system: SF-295
K562 = test system: K562
SF-539 = test system: SF-539
SR = test system: SR
HT-29 = test system: HT-29
EKVX = test system: EKVX
NCI-H23 = test system: NCI-H23
A549 = test system: A549
HOP-62 = test system: HOP-62
MCF7 = test system: MCF7
PC-3 = test system: PC-3
NCI-H460 = test system: NCI-H460
OVCAR-3 = test system: OVCAR-3

Measured: GI50

CCOC(=O)/C(C#N)=C/c1ccc2c(c1)CC1(C2)Cc2cc(CC)c(C(C)O)cc2C1 (stereo not drawn)
inactive: UACC-62 7.83 µM | MDA-MB-435 2.14 µM | MDA-MB-231 10.5 µM | KM12 19.6 µM | HCC 2998 16.3 µM | SN12C 14.2 µM | SF-295 15.7 µM | K562 4.31 µM | SF-539 9.82 µM | SR 5.05 µM | HT-29 19.1 µM | EKVX 57.5 µM | NCI-H23 13.5 µM | A549 44.1 µM | HOP-62 14.2 µM | MCF7 5.18 µM | PC-3 10.2 µM | NCI-H460 23.2 µM | OVCAR-3 8.04 µM

C#CCn1c(=O)ccn(/C(=C\C(=O)OCC)C(=O)OCC)c1=O
inactive: UACC-62 14.2 µM | MDA-MB-435 7.33 µM | MDA-MB-231 18.1 µM | KM12 22.8 µM | HCC 2998 19.9 µM | SN12C 8.89 µM | SF-295 22.9 µM | K562 3.54 µM | SF-539 1.86 µM | SR 5.02 µM | HT-29 2.04 µM | EKVX 6.28 µM | NCI-H23 14.9 µM | A549 22.8 µM | HOP-62 23.5 µM | MCF7 2.87 µM | PC-3 15 µM | NCI-H460 2.63 µM | OVCAR-3 5.61 µM

CCC(=O)Oc1ccc2c(c1)c(=O)c1c(NCCCN(C)C)ccc3nnn2c31
inactive: UACC-62 11.2 µM | MDA-MB-435 2.79 µM | MDA-MB-231 3.44 µM | HCC 2998 1.25 µM | SF-295 2.45 µM | SF-539 1.71 µM | EKVX 1.17 µM | NCI-H23 3.35 µM | HOP-62 1.53 µM | PC-3 2.48 µM | OVCAR-3 7 µM
active: KM12 0.796 µM | SN12C 0.525 µM | K562 0.726 µM | SR 0.201 µM | HT-29 0.69 µM | A549 0.275 µM | MCF7 0.536 µM | NCI-H460 0.0348 µM

CCCCc1ccc(Nc2nc(Cl)c3c(ncn3C3CC(Oc4ccc(C)cc4)C(COc4ccc(C)cc4)O3)n2)cc1 (stereo not drawn)
inactive: UACC-62 > 100 µM | MDA-MB-435 > 100 µM | MDA-MB-231 > 100 µM | KM12 > 100 µM | HCC 2998 > 100 µM | SN12C > 100 µM | SF-295 > 100 µM | K562 > 100 µM | SF-539 61 µM | SR > 100 µM | HT-29 > 100 µM | EKVX > 100 µM | NCI-H23 > 100 µM | A549 > 100 µM | HOP-62 > 100 µM | MCF7 39.3 µM | PC-3 > 100 µM | NCI-H460 > 100 µM | OVCAR-3 > 100 µM

CC1OC(OC2C(O[C@H]3CC[C@@]4(C)C(=CC[C@H]5[C@@H]6C[C@@H]7O[C@]8(CC[C@@H](C)CO8)[C@@H](C)[C@@H]7[C@@]6(C)CC[C@@H]54)C3)OC(CO)C(O)C2O)C(O)C(O)C1O (stereo partly drawn)
active: KM12 0.838 µM | HCC 2998 1.11 µM | SN12C 1.1 µM | HT-29 0.962 µM | A549 0.647 µM | PC-3 0.581 µM | NCI-H460 0.327 µM
inactive: UACC-62 1.4 µM | MDA-MB-435 1.41 µM | MDA-MB-231 1.14 µM | SF-295 1.15 µM | K562 1.57 µM | SF-539 1.21 µM | SR 2.77 µM | EKVX 3.1 µM | NCI-H23 2.28 µM | HOP-62 1.34 µM | MCF7 1.82 µM | OVCAR-3 3.4 µM

N#Cc1nc(NC(=O)c2ccccc2)sc1N
inactive: UACC-62 > 10 µM | MDA-MB-435 > 10 µM | MDA-MB-231 > 10 µM | KM12 > 10 µM | HCC 2998 > 10 µM | SN12C > 10 µM | SF-295 > 10 µM | K562 > 10 µM | SF-539 > 10 µM | SR > 6.01 µM | HT-29 > 10 µM | EKVX > 10 µM | NCI-H23 > 10 µM | A549 > 10 µM | HOP-62 > 10 µM | MCF7 > 2.22 µM | PC-3 > 10 µM | NCI-H460 > 10 µM | OVCAR-3 > 10 µM

Cc1[nH]n(-c2ncc(C#N)c(=O)[nH]2)c(=O)c1CCO
inactive: UACC-62 > 100 µM | MDA-MB-435 > 100 µM | MDA-MB-231 > 100 µM | KM12 > 100 µM | HCC 2998 > 100 µM | SN12C > 100 µM | SF-295 > 100 µM | K562 > 100 µM | SF-539 > 100 µM | SR > 100 µM | HT-29 > 100 µM | EKVX > 100 µM | NCI-H23 > 100 µM | A549 > 100 µM | HOP-62 > 100 µM | MCF7 > 100 µM | PC-3 > 100 µM | NCI-H460 > 100 µM | OVCAR-3 > 100 µM
